Source: patent US20060035873A1, “Methods for inducing apolipoprotein e secretion” (priority 2000, published 2006)
Read-outs that look alike come from different tables or passages of the source.

Experiments:
[1] = tested on: FXR; settings: cited from earlier work
[2] = tested on: ApoE secretion by THP-1 cells; assay: Secretion of ApoE by THP-1 cells, ApoE determined by ELISA; assay type: cell-based, human; settings: for Change in Apo E production: 72 hours incubation
Protocol: The activities of the compounds can be determined an in vitro assay which comprises testing the effects of FXR and LXRα activators on the secretion of ApoE in the THP-1 cell line.
The THP1 cell line was derived from the peripheral blood of a child with acute monocytic leukemia. […] Fresh medium was added to maintain cell density between 2 and 9×10^5 cells/ml. Once a week, new cultures were initiated by inoculating 10 ml of medium with 2×10^6 cells in a 75 cm^2 plate. The plates were kept at 37° C. in a 5% CO2 atmosphere. For screening, cells were seeded in 24-well plates at the density of 2×10^5 cells per well. Phorbol-12-myristat-13-acetate (PMA) was added at 0 and 2.5 nM to initiate THP1 differentiation into adherent macrophage-like cells. Vehicles, reference compounds and test compounds were added simultaneously at concentrations varying from 1 to 50 μM and incubated for 72 hours. The culture medium was then recovered, centrifuged at 300 g for 5 min to remove any unattached cell and stored at −20° C. before analysis.
96 well-microtiter plates were coated by incubating with a 5% gelatine solution from porcine skin, in 50 mM carbonate-bicarbonate buffer, pH9.6 at the concentration of 200 μl/well, for 2 hours at 37° C. The coating solution was carefully removed and the test compound was added (100 μl/well) at the appropriate dilution. Dilutions of a human ApoE standard (ICN BiomedicalsInc, USA) were simultaneously assayed. Test compounds and antibodies were diluted in the following buffer solution: PBS, 1% BSA, 0.1% Tween 20, pH 7.4. Test compounds were incubated for 1 hour at 37° C., and the wells were washed 3 times with 200 μl of buffer solution. One hundred microliters per well of the primary antibody (goat anti-human ApoE IgG) diluted 10000 fold was incubated for 1 hour at 37° C. under continuous shaking. After the third wash, 100 μl/well of the secondary antibody (anti-goat-IgG peroxidase conjugate) diluted 5000 fold was incubated for 1 hour at 37° C. with continuous shaking. Wells were washed 5 times and 100 μl/well of substrate (ortho-phenylenediamine dihydrochloride) was incubated for the appropriate time at room temperature in the dark with continuous shaking. The reaction was stopped by adding 50 μl/well of 3M sulfuric acid and incubating for 1 min at room temperature.

[3] = molecular target: T1, LXRα (Homo sapiens, UniProt Q13133); settings: see Janowsky et al. PNAS 1999; cited from earlier work
T1 sequence (Q13133 1-447): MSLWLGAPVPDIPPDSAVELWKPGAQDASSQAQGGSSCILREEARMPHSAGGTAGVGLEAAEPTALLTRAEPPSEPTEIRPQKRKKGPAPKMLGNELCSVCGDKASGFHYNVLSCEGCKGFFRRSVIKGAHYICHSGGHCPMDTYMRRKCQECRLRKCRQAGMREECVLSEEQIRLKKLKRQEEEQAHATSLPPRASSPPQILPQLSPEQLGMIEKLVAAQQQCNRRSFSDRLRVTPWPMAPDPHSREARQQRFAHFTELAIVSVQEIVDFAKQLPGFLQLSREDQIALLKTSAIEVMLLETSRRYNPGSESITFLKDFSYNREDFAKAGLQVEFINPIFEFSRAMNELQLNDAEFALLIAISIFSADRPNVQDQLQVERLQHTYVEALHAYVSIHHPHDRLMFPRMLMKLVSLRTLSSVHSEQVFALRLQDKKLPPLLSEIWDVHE

C[C@H](CCC(=O)O)[C@H]1CC[C@H]2[C@@H]3[C@H](O)C[C@@H]4C[C@H](O)CC[C@]4(C)[C@H]3C[C@H](O)[C@]12C [Cholic acid, 3α,7α,12α-trihydroxy-5β-cholan-24-oic acid]
Interaction with Nuclear receptor ([1]; see Makishima et al., Parks et al., Wang et al. 1999): Does not activate
Change in Apo E production ([2]; compound 50 μM): +6%
Change in Apo E production ([2]; compound 50 μM, listed as cholic acid): did not change ApoE secretion

C[C@H](CCC(=O)O)[C@H]1CC[C@H]2[C@@H]3[C@H](O)C[C@@H]4C[C@H](O)CC[C@]4(C)[C@H]3CC[C@]12C [Chenodeoxycholic acid, 3α,7α-dihydroxy-5β-cholanic acid]
Change in Apo E production ([2]; compound 50 μM): +138%
Change in Apo E production ([2]; compound 50 μM, listed as chenodeoxycholic acid): 138%

CC(C)=CCC/C(C)=C/CC/C(C)=C/CC/C(C)=C/CO [Geranylgeraniol, All trans-3,7,11,15-tetramethyl-2,6,10,14-hexadecatetraen-1-ol]
Interaction with Nuclear receptor ([1]; see Forman et al. Cell 1995): Does not activate
Change in Apo E production ([2]; compound 20 μM): +36%
Change in Apo E production ([2]; compound 20 μM, listed as geranylgeraniol): 36%

CC(C)CC[C@H](O)[C@@H](C)[C@H]1CC[C@H]2[C@@H]3CC=C4C[C@@H](O)CC[C@]4(C)[C@H]3CC[C@]12C [22(S)-hydroxycholesterol, 5-cholestene-3β,22[S]-diol]
Interaction with Nuclear receptor [3]: Less potent activator

CC(C)CC[C@@H](O)[C@@H](C)[C@H]1CC[C@H]2[C@@H]3CC=C4C[C@@H](O)CC[C@]4(C)[C@H]3CC[C@]12C [22(R)-hydroxycholesterol, 5-cholestene-3β,22[R]-diol]
Interaction with Nuclear receptor [3]: LXRα activator ^3)
ApoE secretion at submicromolar concentrations ([2]; submicromolar concentrations): significant increases in ApoE secretion
